Assay results reported in EP2862852B1, “Urea derivatives for the protection of stem cells” (Symrise AG, priority 2013, dated 2015).
pIC50: −log10 of the molar value. Like-named read-outs stand apart in the source and are kept apart here.

Assays:
[1] = tested on: B16V mouse melanoma cells; assay: Depigmentation effect on melanoma cell cultures; assay type: cell-based; conditions: 0.6 mM tyrosine and 10 nM α-MSH, 96 h, read-out: IC50, inhibition of pigmentation
Method: B16V mouse melanoma cells are disseminated in a 96-well micro-titre plate in a concentration of 7.5 x 10^3 cells/well. After cultivation for 24 h at 37°C and 5% CO2 in RPMI medium, enriched with 10% foetal calf serum, various concentrations of the test substances and 0.6 mM tyrosine and 10 nM α-MSH (α-melanocyte stimulating hormone) are added and incubated for a further 96 h. The maximum concentration of the test substances used corresponds to 0.1 times the value of the IC20 value of the cytotoxicity assay. Only tyrosine and α-MSH are added to the controls. After incubation, sodium hydroxide solution (final concentrations: 1 M) is added to the culture medium and the absorption (A) is measured after 3 h at 400 nm.
From the inhibition of pigmentation (%) in a series of dilutions of test compounds, the IC50 for each test compound is calculated. This is the concentration of a test compound at which pigmentation is inhibited by 50%.

[2] = target: T1, 20S proteasome (Homo sapiens, UniProt P28074); assay: 20S Proteasome Assay (in vitro), chymotrypsin-like protease activity in NHDF cells; assay type: cell-based; conditions: 72 h
T1 construct: NHDF (normal human dermal fibroblasts) cells are disseminated in a 96-well microtiter plate; endogenous in cells; host or cells: NHDF (normal human dermal fibroblasts)

[3] = tested on: SIRT1; assay: SIRT1 assay (in vitro), SIRT1 expression by immunofluorescence in NHDF cells; assay type: cell-based, human; conditions: 10 µM, 48 h, mean values of at least 2 independent experiments
Method: NHDF cells (normal human dermal fibroblasts) were seeded in 96-well plates. After 24 h cultivation at 37 °C and 5% CO2 in DMEM (Dulbecco's Modified Eagle Medium), cells were treated with test substances for another 48 h. After washing the cells with PBS (phosphate buffered saline), the cells were fixed with paraformaldehyde and permeabilized. Then they were washed again and blocked with BSA (bovine serum albumen), followed by incubation with […]. After extensive washing, the fluorescence is measured in a microplate reader and fluorescence images were recorded on a fluorescence microscope with an attached […].
The stimulation of SIRT1 expression was calculated by: Stimulation of SIRT1expression[%] = ((RFU test substance−RFU background)/(RFU control−RFU background) × 100)−100 [formula] • RFU test substance = relative fluorescent units of the wells with test substance, stained completely • RFU control = relative fluorescent units of the wells without test substance, stained completely • RFU background = relative fluorescent units of the wells without test substance, stained only with secondary antibody.

[4] = tested on: HHFSC (Human Hair Follicle Stem Cells); assay: Stem cell protection (in vitro): inhibition of UVB-induced apoptosis, caspase 3/7 chemiluminescence; assay type: cell-based; conditions: light or radiation study, 25 mJ/cm^2 UVB, relative to control, read-out: Inhibition of UV induced apoptosis
Method: HHFSC (Human Hair Follicle Stem Cells) isolated from hair follicle bulge (Celprogen) were cultivated in culture ware pre-coated with Human Hair Follicle Stem Cell Extra-cellular Matrix (Celprogen). The cells were incubated 2 h prior to and 16 h after UVB irradiation with test compounds. Cells were irradiated with 25 mJ/cm^2 UVB in the presence of buffer solution. Apoptosis induction was evaluated by caspase 3/7 protein expression (Caspase-Glo 3/7, Promega) and quantified by chemiluminescence measurement.

[5] = tested on: Heme oxygenase-1; assay: Heme oxygenase-1 expression (in vitro), Western blot in NHDF cells; assay type: cell-based, human; conditions: 24 h
Method: NHDF (normal human dermal fibroblasts) cells were disseminated in a 6-well plate. After cultivation in fully enriched medium (DMEM, 10% FCS) for 48 h, the serum content was reduced to 0.1% to synchronize the cell cycle. Various concentrations of the test substances, the negative control (untreated cells) and tert.- butylhydrochinon as positive control, are added and incubated for a further 24 h. After cell lysis, the protein amount was determined using the Biorad BCA assay. All samples were adjusted to the same protein level before application on a fast Criterion Gel (Biorad) to perform electrophoresis for 20 minutes at 300 V. Thereafter the proteins were transferred to a PVDF membrane on a semi-dry blotter (30 minutes, 25 V). The blotted membrane is blocked for 4 hours in a 5% milk powder solution in TBST at 4°C. After washing, the membrane is incubated with the first antibody solution HO-1 from abcam (1:500 in 1% milk powder in TBST) over night. After this, washing is repeated and the membrane has to be incubated for 1 h in the second antibody solution (goat anti mouse coupled to HRP; 1:800 in 1% milk powder). […] The resulting band pattern is detected with a chemiluminescence sensitive camera system (Vilber Loumat). The quantification was done by densitometry. The up-regulation is calculated relative to control.

[6] = tested on: Hyaluronic acid; assay: Hyaluronic Acid Assay (in vitro), competitive ELISA in NHDF cells; assay type: cell-based, human; conditions: 72 h
Method: NHDF (normal human dermal fibroblasts) cells were disseminated in a 96-well microtiter plate in a concentration of 2 x 10^4 cells/well (DMEM, 10% FCS). After cultivation in fully enriched medium (DMEM, 10% FCS) for 48 h at 37°C and 5% CO2, the serum content was reduced to 0.1% to synchronize the cell cycle. Various concentrations of the test substances and TGF-beta1 as internal standard are added and incubated for a further 72 h. The maximum concentration of the test substances used corresponds to 0.2 times the value of the IC20 value of the cytotoxicity assay. Hyaluronic acid is quantified by a competitive ELISA (TECOmedical TE1017).
The percent bound for each standard and unknown substance is calculated using the following equation: HA_[ng/ml] = (Astandardortestsubstance −Ablank)/(Azerostandard −Ablank) [formula] The abbreviations have the following meanings: • A(standard or test substance): Absorption of the wells with standard or test substance • A(zero standard): Absorption of the wells without HA standard • A(blank): Absorption of the wells without antibody, without peroxidase conjugate A standard curve is generated by plotting the percent B/ B0 as a function of the log HA concentration. The HA amount in the unknown samples is calculated by interpolating from the percent B / B0 values to […]. InductionofHA[%] = ((HAtestsubstance −HAwithoutcells)/(HAcontrol −HAwithoutcells) × 100) [formula] The abbreviations have the following meanings: • HA test substance: Amount of HA of the wells with test substance and with cells • HA control: Amount of HA of the wells without test substance, but with cells • HA without cells Amount of HA of the wells without cells

pIC50 ([1]; Mus musculus)	20S proteasome stimulation relative to control ([2]; 600 µM) [%]	Compound	SIRT1 protein induction [3] [%]	also measured
4.74		CCCCCCNC(=O)NC1CCCCC1 [Compound 3, 1-cyclohexyl-3-hexyl-urea]		
4.84		C[C@@H]1CCCC[C@H]1NC(=O)NCC1CCCCC1 (relative stereo) [Compound 4, 1-(cyclohexylmethyl)-3-(trans-2-methylcyclohexyl) urea]		
3.54	105	CCC(C)NC(=O)NC1CCCCC1 (stereo not drawn) [Compound 2, 1-cyclohexyl-3-sec-butyl-urea]	57	
	83	O=C(NC1CCCCC1)NC1CCCCC1 [Compound 1, 1,3-dicyclohexylurea]	34	
		CC(C)CN(C)C(=O)NC1CCCCC1 [Compound 6, 3-cyclohexyl-(1-iso-butyl-1-methyl)-urea]		20S proteasome stimulation relative to control ([2]; 23.5 µM): 39%
4.90		CCCCC(CC)CNC(=O)NC1CCCCC1 (stereo not drawn) [Compound 5, 1-cyclohexyl-3-(2-ethylhexyl)urea]	19	inhibition at 20 µM ([4]; 0.02 mM): 20.4%; inhibition at 200 µM ([4]; 0.2 mM): 95.3%; 20S proteasome stimulation relative to control ([2]; 780 µM): 37%; HO-1 up-regulation relative to control ([5]; 250 µM): 10.2-fold; Hyaluronic acid stimulation relative to control ([6]; 0.1 µM): 67%; Hyaluronic acid stimulation relative to control ([6]; 0.5 µM): 51%; Hyaluronic acid stimulation relative to control ([6]; 5 µM): 39%
3.34		O=c1cc(CO)occ1O [Kojic acid, 5-hydroxy-2-hydroxymethyl-4-pyranone, reference compound]		
	85	1,3-bis(2-methylcyclohexyl)urea [Compound 7]		
		OC[C@H]1O[C@@H](Oc2ccc(O)cc2)[C@H](O)[C@@H](O)[C@@H]1O [beta-Arbutin, reference compound]		pIC50 [1]: 4.17
		CC(C)(C)c1cc(O)ccc1O [tert.-butylhydrochinon, tert.- butylhydrochinon, reference compound]		HO-1 up-regulation relative to control ([5]; 25 µM): 24.2-fold
